Read-outs that look alike come from different tables or passages of the source.

Holding throughout (assay type): biochemical
Assay [1] deals with T1, PI3K beta (Homo sapiens, UniProt P42338).
T1 construct: His (N); host or cells: SF9 cells (baculovirus)
Put plainly: Human PI3K beta enzyme assay (HTRF). The source says: (§1) The catalytic subunits of PI3Ks are cloned into either pDEST8 (p110 alpha) or pDEST10 (p110beta, p110delta, and p110gamma) as N-terminal His tagged fusion proteins using the Gateway system (Invitrogen, catalog #11804-010 for pDEST8 and 11806-015 for pDEST10). The sequences are verified before recombinant protein expression using the Baculovirus Expression System with Gateway® Technology. The accession numbers for the subunits are as follows:
(§2) For expression of the p110 complexes, the p85 (MOI of 4) is co-infected with p110 alpha, beta, and delta respectively (1MOI) in SF9 cells and harvested at 60 hours post co-infection. P110 gamma was infected at 1 MOI and harvested at 60 hours post infection.
(§3) For purification, PI3Ks are purified by Ni-NTA Agarose (Qiagen #30250) followed by Mono Q 10/100 GL (Ge Healthcare #17-5167-01). VPS34 is purified by Glutathione Sepharose 4 Fast Flow (GE Healthcare #17-5132-03) followed by HiTrap Q (GE Healthcare #17-1153-01).
(§4) 0.5 uL compounds in DMSO are added to wells of a 384 well microtitre plate (Corning 3575). At room temperature: 10 ul PI3K reaction buffer (50 mM Hepes, 5 mM DTT, 150 mM NaCl, 10 mM beta-glycerophosphate, 10 mM MgCl2, 0.25 mM sodium cholate and 0.001% CHAPS, pH 7.00) containing ATP (25 uM, Promega) is added followed immediately by 10 ul PI3K reaction buffer containing di-C8 PI(4,5)P2 (3.5 uM, CellSignals) and PI3Kalpha (0.4875 nM, Millennium Protein Sciences Group) and the mixture is incubated with shaking at room temperature for 30 minutes. Then 5 ul PI3K stop mix (50 mM Hepes, 5 mM DTT, 150 mM NaCl, 0.01% Tween-20, 15 mM EDTA and 25 nM biotin-PI(3,4,5)P3 (Echelon) is added to quench the reaction followed immediately by addition of 5 ul HTRF detection mix (50 mM Hepes, 5 mM DTT, 150 mM NaCl, 0.01% Tween-20, 40 mM KF, 10 nM GST:GRP-1 PH domain (Millennium Protein Sciences Group), 15 nM Streptavidin-XL (CisBio) and 0.375 nM anti-GST Eu++ antibody (CisBio) at pH 7.00). The plates are then incubated for 1 hour at room temperature with shaking and then read on a BMG PheraStar Plus reader.
(§5) 2) Human PI3K beta, delta and gamma isoforms are tested using the procedure described for PI3K alpha above but with the following changes: PI3K beta (5.25 nM), PI3K delta (0.75 nM) and PI3K gamma (5 nM). All isoforms supplied by Millennium Protein Science Group.
(§6) For the assay methods described above, test compound percent inhibition, at various concentrations, is calculated relative to control (DMSO and EDTA) treated samples. Compound concentration versus percent inhibition curves are fitted to generate IC50 values. One skilled in the art will appreciate that the values generated either as percentage inhibition at a single concentration or IC50 values are subject to experimental variation.
In general terms: Time-resolved FRET reads energy transfer from a long-lived donor to a nearby acceptor.

Assay [2] has as its target T2, PI3K delta (Homo sapiens, UniProt O00329).
T2 construct: His (N); host or cells: SF9 cells (baculovirus)
Put plainly: Human PI3K delta enzyme assay (HTRF).
Source text: as §1, §2, §3, §4, §5, §6

Assay [3] addresses T3, VPS34 (Homo sapiens, UniProt Q8NEB9).
T3 construct: GST (N); host or cells: SF9 cells (baculovirus)
Description: Human VPS34 enzyme assay (Adapta Universal Kinase Assay). As to conditions: 1 h; at a 1.0 μM concentration; read-out: VPS34 Percent Inhibition. As to the method:
VPS34 (accession number GB:BC033004) is cloned into pDEST20-Thombin as N-terminal GST tagged fusion proteins using the Gateway system (Invitrogen, catalog #11804-013). The sequences are verified before recombinant protein expression using the Baculovirus Expression System with Gateway® Technology.
For expression VPS34 was infected at 1MOI in SF9 cells and harvested 72 hours post infection.
For purification, VPS34 is purified by Glutathione Sepharose 4 Fast Flow (GE Healthcare #17-5132-03) followed by HiTrap Q (GE Healthcare #17-1153-01).
3) VPS34 is assayed using Adapta™ Universal Kinase Assay Kit (Invitrogen).
4) Human VPS34 enzyme assay method
100 nL compounds in DMSO are added to wells of a 384 well microtitre plate (Greiner 780076). […] The plates are then incubated for 30 minutes at room temperature with shaking and then read on a BMG PheraStar Plus reader.
For the assay methods described above, test compound percent inhibition, at various concentrations, is calculated relative to control (DMSO and EDTA) treated samples. […]

The target of assay [4] is T4, PI3Kalpha (Homo sapiens, UniProt P42336).
T4 construct: His (N); host or cells: SF9 cells (baculovirus)
T4 sequence (P42336 whole entry): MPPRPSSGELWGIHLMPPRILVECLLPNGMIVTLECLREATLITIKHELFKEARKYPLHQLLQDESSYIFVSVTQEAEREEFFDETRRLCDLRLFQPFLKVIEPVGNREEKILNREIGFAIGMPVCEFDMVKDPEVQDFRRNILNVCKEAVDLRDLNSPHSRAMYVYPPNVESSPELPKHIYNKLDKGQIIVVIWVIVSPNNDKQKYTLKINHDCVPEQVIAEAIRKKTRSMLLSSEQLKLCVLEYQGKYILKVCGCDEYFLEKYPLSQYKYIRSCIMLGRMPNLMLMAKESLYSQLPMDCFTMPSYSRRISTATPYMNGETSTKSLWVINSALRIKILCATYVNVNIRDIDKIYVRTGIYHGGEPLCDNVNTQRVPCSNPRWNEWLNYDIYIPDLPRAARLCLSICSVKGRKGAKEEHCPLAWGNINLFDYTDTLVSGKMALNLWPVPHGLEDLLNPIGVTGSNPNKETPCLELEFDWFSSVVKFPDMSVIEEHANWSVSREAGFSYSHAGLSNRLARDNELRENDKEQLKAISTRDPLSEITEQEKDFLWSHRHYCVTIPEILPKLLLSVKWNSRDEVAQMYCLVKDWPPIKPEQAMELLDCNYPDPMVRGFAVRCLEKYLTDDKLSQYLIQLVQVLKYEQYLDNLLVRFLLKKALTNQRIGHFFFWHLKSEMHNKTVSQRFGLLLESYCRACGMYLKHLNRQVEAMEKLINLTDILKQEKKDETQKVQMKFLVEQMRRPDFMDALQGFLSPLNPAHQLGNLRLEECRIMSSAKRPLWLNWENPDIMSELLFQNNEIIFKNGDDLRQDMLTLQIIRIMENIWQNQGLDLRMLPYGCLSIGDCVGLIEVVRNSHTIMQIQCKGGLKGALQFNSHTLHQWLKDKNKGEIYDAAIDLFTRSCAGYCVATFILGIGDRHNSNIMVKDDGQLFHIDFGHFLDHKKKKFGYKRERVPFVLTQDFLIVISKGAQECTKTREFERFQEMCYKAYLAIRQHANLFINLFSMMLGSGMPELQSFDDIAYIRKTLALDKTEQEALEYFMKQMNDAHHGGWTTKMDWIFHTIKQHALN
T4 sequence (P27986 whole entry partner): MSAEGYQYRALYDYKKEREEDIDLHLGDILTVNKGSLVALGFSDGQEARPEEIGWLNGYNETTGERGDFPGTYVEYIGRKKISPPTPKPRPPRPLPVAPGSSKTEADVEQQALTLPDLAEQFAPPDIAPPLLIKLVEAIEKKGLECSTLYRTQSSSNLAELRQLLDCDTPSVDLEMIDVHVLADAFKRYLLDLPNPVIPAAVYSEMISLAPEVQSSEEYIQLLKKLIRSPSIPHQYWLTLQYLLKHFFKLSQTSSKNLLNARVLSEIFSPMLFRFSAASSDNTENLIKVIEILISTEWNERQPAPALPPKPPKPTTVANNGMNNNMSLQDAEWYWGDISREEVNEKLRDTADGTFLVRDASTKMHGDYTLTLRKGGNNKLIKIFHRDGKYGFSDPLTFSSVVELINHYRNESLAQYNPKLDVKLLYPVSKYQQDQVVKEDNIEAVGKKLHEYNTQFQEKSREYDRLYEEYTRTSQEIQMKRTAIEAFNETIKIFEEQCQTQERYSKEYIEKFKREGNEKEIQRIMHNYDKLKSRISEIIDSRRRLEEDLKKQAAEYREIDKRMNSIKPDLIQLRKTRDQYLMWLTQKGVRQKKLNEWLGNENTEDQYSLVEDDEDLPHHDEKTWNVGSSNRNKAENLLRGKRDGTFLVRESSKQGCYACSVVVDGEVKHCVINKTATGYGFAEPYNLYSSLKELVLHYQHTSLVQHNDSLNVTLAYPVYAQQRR
Description: Human PI3K alpha enzyme assay (HTRF).
Source text: as §1, §2, §3
1) Human PI3K Alpha Enzyme Assay Method
as §4, §6

The target in assay [5] is T5, PI3K gamma (Homo sapiens, UniProt P48736).
T5 construct: His (N); host or cells: SF9 cells (baculovirus)
T5 sequence (P48736 whole entry): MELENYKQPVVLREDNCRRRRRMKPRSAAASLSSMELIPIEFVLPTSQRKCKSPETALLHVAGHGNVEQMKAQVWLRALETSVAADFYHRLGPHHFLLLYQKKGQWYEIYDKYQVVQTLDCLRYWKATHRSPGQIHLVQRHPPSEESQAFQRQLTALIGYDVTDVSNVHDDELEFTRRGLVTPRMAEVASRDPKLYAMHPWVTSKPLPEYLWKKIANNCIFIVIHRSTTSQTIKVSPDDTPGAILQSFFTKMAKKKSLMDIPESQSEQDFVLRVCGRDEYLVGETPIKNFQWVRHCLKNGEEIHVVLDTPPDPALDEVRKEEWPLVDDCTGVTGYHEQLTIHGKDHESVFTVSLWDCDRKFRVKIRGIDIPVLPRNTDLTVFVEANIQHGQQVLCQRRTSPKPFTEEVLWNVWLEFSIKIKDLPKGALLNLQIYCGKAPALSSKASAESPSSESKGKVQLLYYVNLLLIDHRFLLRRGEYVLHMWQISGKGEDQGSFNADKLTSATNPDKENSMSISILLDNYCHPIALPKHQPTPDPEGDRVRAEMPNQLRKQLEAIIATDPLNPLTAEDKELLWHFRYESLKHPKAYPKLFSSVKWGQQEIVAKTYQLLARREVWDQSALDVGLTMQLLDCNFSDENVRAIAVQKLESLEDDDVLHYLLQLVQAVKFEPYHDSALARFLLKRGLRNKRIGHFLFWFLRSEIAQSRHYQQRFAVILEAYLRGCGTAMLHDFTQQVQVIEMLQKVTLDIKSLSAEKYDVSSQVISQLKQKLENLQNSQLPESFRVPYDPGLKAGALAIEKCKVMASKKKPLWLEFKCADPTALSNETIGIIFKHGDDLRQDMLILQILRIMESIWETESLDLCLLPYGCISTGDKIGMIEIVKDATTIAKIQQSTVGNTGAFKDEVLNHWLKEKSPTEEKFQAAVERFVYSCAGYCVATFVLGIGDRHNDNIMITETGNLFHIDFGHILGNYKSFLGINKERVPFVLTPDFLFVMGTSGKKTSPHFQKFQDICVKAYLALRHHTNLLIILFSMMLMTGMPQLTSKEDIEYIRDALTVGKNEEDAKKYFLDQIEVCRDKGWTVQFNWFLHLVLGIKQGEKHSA
Put plainly: Human PI3K gamma enzyme assay (HTRF).
Source text: as §1, §2, §3, §4, §5, §6

The mark [6] stands for this setting: at a 1.1 μM concentration, read-out: PI3Kβ Percent Inhibition.
Setting [7] is: at a 1.0 μM concentration, read-out: PI3Kδ Percent Inhibition.
Where [8] appears, read: at a 1.1 μM concentration, read-out: PI3Kα Percent Inhibition.
The mark [9] stands for this setting: at a 1.0 μM concentration, read-out: PI3Kγ Percent Inhibition.
[10] abbreviates: concentration not given, read-out: p110 beta Percent Inhibition.
[11] abbreviates: concentration not given, b1433 gives 1.0 μM for PI3K δ and γ, read-out: p110 delta Percent Inhibition.
The mark [12] stands for this setting: concentration not given, read-out: p110 alpha Percent Inhibition.
Where [13] appears, read: concentration not given, b1433 gives 1.0 μM for PI3K δ and γ, read-out: p110 gamma Percent Inhibition.

T1 sequence (P42338 whole entry): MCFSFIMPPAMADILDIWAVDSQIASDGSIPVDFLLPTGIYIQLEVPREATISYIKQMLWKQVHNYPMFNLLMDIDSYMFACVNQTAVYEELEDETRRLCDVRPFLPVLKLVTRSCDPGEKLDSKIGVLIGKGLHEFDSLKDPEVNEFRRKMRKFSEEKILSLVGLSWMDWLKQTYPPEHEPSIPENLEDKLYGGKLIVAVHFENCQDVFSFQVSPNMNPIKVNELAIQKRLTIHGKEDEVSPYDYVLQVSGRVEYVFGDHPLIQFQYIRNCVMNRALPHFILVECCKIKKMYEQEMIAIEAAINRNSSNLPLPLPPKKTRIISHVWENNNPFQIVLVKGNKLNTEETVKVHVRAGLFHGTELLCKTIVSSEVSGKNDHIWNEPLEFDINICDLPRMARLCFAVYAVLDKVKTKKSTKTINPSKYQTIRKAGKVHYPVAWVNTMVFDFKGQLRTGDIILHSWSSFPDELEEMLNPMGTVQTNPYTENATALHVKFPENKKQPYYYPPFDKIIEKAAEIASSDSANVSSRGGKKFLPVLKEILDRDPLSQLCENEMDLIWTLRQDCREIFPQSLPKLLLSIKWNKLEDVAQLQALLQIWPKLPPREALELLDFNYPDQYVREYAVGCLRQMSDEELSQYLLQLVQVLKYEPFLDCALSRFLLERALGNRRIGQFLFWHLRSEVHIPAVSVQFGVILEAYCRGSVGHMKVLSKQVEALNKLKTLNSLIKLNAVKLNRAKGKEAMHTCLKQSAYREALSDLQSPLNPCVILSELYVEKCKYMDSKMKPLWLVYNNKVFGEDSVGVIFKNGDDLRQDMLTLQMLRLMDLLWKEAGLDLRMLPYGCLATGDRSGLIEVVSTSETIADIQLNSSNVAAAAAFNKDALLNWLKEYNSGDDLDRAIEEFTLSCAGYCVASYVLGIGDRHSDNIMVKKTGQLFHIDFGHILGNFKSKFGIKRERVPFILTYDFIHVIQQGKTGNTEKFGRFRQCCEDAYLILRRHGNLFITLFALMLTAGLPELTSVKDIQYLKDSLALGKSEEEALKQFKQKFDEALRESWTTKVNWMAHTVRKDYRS
T1 sequence (P27986 whole entry partner): as the sequence (P27986 whole entry partner) above
T2 sequence (O00329 whole entry): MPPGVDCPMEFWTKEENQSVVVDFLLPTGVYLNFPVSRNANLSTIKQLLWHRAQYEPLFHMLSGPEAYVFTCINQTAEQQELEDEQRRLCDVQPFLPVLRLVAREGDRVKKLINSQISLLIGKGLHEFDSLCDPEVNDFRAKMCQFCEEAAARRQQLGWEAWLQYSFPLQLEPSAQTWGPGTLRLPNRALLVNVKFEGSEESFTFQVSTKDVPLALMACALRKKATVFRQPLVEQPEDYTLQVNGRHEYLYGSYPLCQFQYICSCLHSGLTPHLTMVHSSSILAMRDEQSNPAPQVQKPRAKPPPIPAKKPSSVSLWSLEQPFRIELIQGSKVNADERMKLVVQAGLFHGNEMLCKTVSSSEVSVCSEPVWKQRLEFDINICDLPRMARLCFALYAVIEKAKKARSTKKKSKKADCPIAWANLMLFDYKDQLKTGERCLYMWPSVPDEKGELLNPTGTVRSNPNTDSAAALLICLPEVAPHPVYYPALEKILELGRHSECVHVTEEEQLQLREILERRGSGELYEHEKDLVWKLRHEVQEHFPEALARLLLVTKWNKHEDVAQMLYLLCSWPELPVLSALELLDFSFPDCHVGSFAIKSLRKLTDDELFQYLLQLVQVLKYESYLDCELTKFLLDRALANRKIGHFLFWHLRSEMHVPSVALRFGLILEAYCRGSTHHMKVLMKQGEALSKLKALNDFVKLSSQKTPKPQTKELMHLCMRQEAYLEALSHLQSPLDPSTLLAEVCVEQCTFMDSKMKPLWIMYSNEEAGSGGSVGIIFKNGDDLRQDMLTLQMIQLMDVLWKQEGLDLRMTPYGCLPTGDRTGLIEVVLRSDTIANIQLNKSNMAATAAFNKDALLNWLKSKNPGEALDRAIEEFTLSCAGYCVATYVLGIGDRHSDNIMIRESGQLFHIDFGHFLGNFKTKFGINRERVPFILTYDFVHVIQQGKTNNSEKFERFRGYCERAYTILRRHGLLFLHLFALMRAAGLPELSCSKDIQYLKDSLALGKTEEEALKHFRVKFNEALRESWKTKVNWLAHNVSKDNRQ
T2 sequence (P27986 whole entry partner): as the sequence (P27986 whole entry partner) above

Consider `N#Cc1c(N2CCOCC2)sc(C(=O)O)c1Cc1ccc(OC(F)(F)F)cc1` [Compound 102], for which the inhibition at 1.1 µM was 78% in assay [1] (setting [6]) and 30% in assay [4] (setting [8]). In addition, the values for the inhibition at 1 µM in assay [2] (setting [7]), in assay [3] and in assay [5] (setting [9]) were 38.1%, 28.2% and 6.8%, respectively.

As to `N#Cc1c(N2CCOCC2)sc(C(=O)O)c1Cc1cc(F)c(F)cc1F` [Compound 107], the figures for the inhibition at 1.1 µM in assay [1] (setting [6]) and in assay [4] (setting [8]) were 103% and 49%, respectively. For the same compound, the results for the inhibition at 1 µM in assay [2] (setting [7]), in assay [3] and in assay [5] (setting [9]) were 87.3%, 45.8% and 20.2%, respectively.

On to `OC(c1cc(Br)cs1)c1cc(-c2ccncc2)sc1-c1nnc[nH]1` (stereo not shown) [Compound 233], for which the values for the inhibition at 1.1 µM in assay [1] (setting [10]) and in assay [4] (setting [12]) were 97% and 61%, respectively. For the same compound, the inhibition at 1 µM in assay [2] (setting [11]) turned out to be 74%; in assay [5] (setting [13]) it was 28%.

Take `COc1cccc(C(O)c2cc(-c3ccncc3)sc2-c2nnc[nH]2)c1` (stereo not shown) [Compound 253]: the inhibition at 1.1 µM in assay [1] (setting [10]) was 64%; in assay [4] (setting [12]), 20%. Besides, the inhibition at 1 µM in assay [2] (setting [11]) was found to be 27%; in assay [5] (setting [13]) it was 2%.

For `NCc1c[nH]c(-c2sc(-c3ccncc3)nc2Cc2ccc(Cl)cc2)n1` [Compound 255, (2-(4-(4-chlorobenzyl)-2-(pyridin-4-yl)thiazol-5-yl)-1H-imidazol-4-yl)methanamine], the inhibition at 1.1 µM in assay [1] (setting [10]) is 55%; in assay [4] (setting [12]), 0%. Also, the inhibition at 1 µM in assay [2] (setting [11]) amounted to 39%; in assay [5] (setting [13]), 5%.

Take `N#Cc1c(N2CCOCC2)sc(C(=O)O)c1Cc1ccc2ccc(F)cc2c1` [Compound 287]: the inhibition at 1.1 µM in assay [1] (setting [10]) came to 109%; in assay [4] (setting [12]), 84%. Further, the inhibition at 1 µM in assay [5] (setting [13]) turned out to be 69%.

Consider `N#Cc1c(N2CCOCC2)sc(C(=O)O)c1Cc1ccc2ccccc2c1F` [Compound 293], for which the inhibition at 1.1 µM in assay [1] (setting [10]) was 108%; in assay [4] (setting [12]), 98%. Besides, the inhibition at 1 µM in assay [5] (setting [13]) was determined as 78%.

`N#Cc1c(N2CCOCC2)sc(C(=O)O)c1Cc1cc2ccccc2cc1F` [Compound 295]: the inhibition at 1.1 µM was found to be 111% in assay [1] (setting [10]) and 101% in assay [4] (setting [12]). Further, the inhibition at 1 µM in assay [5] (setting [13]) was 76%.

Regarding `N#Cc1c(N2CCOCC2)sc(C(=O)O)c1Cc1cc(F)c(Cl)cc1F` [Compound 300], the results for the inhibition at 1.1 µM in assay [1] (setting [10]) and in assay [4] (setting [12]) were 105% and 44%, respectively. The inhibition at 1 µM in assay [5] (setting [13]) stood at 46%.

Consider `N#Cc1c(N2CCOCC2)sc(C(=O)O)c1Cc1ccc2c(c1)CCCC2` [Compound 305], for which the inhibition at 1.1 µM in assay [1] (setting [10]) came out at 106%; in assay [4] (setting [12]), 37%. Moreover, in assay [5] (setting [13]), the inhibition at 1 µM is 37%.

As for `N#Cc1c(N2CCOCC2)sc(C(N)=O)c1C(F)(F)c1ccc2ccccc2c1` [Compound 307], the inhibition at 1.1 µM came to 84% in assay [1] (setting [10]) and 15% in assay [4] (setting [12]). Besides, the inhibition at 1 µM in assay [5] (setting [13]) was determined as 9%.

`N#Cc1c(N2CCOCC2)sc(C(=O)O)c1C(F)(F)c1ccc2ccccc2c1` [Compound 308]: the inhibition at 1.1 µM was 106% in assay [1] (setting [10]) and 41% in assay [4] (setting [12]). In addition, in assay [5] (setting [13]), the inhibition at 1 µM was found to be 39%.

With `N#Cc1c(N2CCOCC2)sc(C(=O)O)c1Cc1cc(F)c2ccccc2c1` [Compound 324], the inhibition at 1.1 µM in assay [1] (setting [10]) was found to be 118%; in assay [4] (setting [12]), 107%. For the same compound, the inhibition at 1 µM in assay [5] (setting [13]) turned out to be 67%.

In the case of `COC(c1ccc2ccccc2c1)c1c(C(=O)O)sc(N2CCOCC2)c1C#N` (stereo not shown) [Compound 337], the inhibition at 1.1 µM in assay [1] (setting [10]) was found to be 60%; in assay [4] (setting [12]), 14%. For the same compound, the inhibition at 1 µM in assay [5] (setting [13]) was determined as 11%.

For `N#Cc1c(N2CCOCC2)sc(C(=O)O)c1Cc1ccc2c(F)cccc2c1` [Compound 343], the figures for the inhibition at 1.1 µM in assay [1] (setting [10]) and in assay [4] (setting [12]) were 110% and 84%, respectively. Moreover, in assay [5] (setting [13]), the inhibition at 1 µM amounted to 67%.

Turning to `N#Cc1c(N2CCOCC2)sc(C(=O)O)c1C(F)c1ccc2ccccc2c1` (stereo not shown) [Compound 345], the inhibition at 1.1 µM in assay [1] (setting [10]) turned out to be 105%. Besides, in assay [5] (setting [13]), the inhibition at 1 µM was determined as 62%.

`N#Cc1c(N2CCOCC2)sc(-c2nnn[nH]2)c1C(F)(F)c1ccc2ccccc2c1` [Compound 349]: the inhibition at 1.1 µM amounted to 108% in assay [1] (setting [10]) and 43% in assay [4] (setting [12]). The inhibition at 1 µM in assay [5] (setting [13]) was 42%.

As to `c1ccc2cc(Cc3nc(N4CCOCC4)sc3-c3nnn[nH]3)ccc2c1` [Compound 360, 4-[4-(2-naphthylmethyl)-5-(1H-tetrazol-5-yl)-1,3-thiazol-2-yl]morpholine], the inhibition at 1.1 µM in assay [1] (setting [10]) was determined as 106%; in assay [4] (setting [12]) it was 30%. In addition, the inhibition at 1 µM amounted to 110% in assay [2] (setting [11]) and 49% in assay [5] (setting [13]).

(Values after patent US8796271B2, “Heteroaryls and uses thereof” (Millennium Pharmaceuticals, Inc., priority 2010, dated 2014).)
